In article PMC7096398, “Oxytocin Receptors Regulate Social Preference in Zebrafish” (Scientific Reports, 2020):
Entries after “also recorded” stand apart in the source; their conditions may differ.

What was measured:
adult zebrafish = assay: Social preference in adult zebrafish; assay type: in vivo, zebrafish (Danio rerio)
Method: Adult and larval behavioural testing was performed between 9 AM and 4 PM. All fish were fed prior to and after experiments, and larvae were also given an additional feed at midday. Adult fish were of a 1:1 sex ratio, and focal fish and stimulus fish were size-matched. Adult fish and shoals were filmed using a web camera and Debut Video Capture Software (NCH Software, Greenwood Village, USA), and videos were analysed using EthoVision version 11 (Noldus, Wageningen, the Netherlands).
The experimental setup comprised one large test tank (60 cm × 30 cm), and two smaller side tanks (15 cm × 30 cm) positioned at the short ends of the test tank; see Fig. 4. The test tank (the arena) was divided into five different zones used when tracking the video recordings, see Fig. 4. The zone closest to the stimuli shoal was always designated Zone 1, and the zone furthest away from the shoal was always designated Zone 5. […] All tanks were visually isolated from each other during the acclimation period of 10 minutes.
A stimulus shoal of eight zebrafish, with a 1:1 sex ratio, was placed in one of the side tanks, while the opposite side tank remained empty. Focal fish and shoal fish were selected to be of similar size in order not to evoke adverse reactions, such as anxiety or aggression. The experiments were thoroughly randomized between treatment groups for time of day and shoal used. The stimulus fish had been habituated to the room and aquarium for 24 hours prior to the start of the experiments. Two shoals were used as stimulus shoals throughout the experiment. The side for the stimulus shoal was alternated in order to avoid any potential place preference of the focal fish. The reasons for using two shoals for all focal fish were to decrease the behavioural variation in focal fish that may be caused by inter-shoal variations, to decrease the stress in stimulus fish caused by netting and transferring them between tanks that may be transferred to the focal fish, and to limit the number of fish used according to the 3 R principles. There were no statistical significant effects of day of testing (One-way ANOVA; p > 0.7), time of testing (One-way ANOVA; p > 0.5), or the identity of the stimulus shoal (shoal 1 versus shoal 2; un-paired t-test; p > 0.1) on the total time the focal fish spent in Zone 1 (closest to the shoal) during the 15 minutes test time.
At 24 hours prior to the experiment, zebrafish were weighed, placed into separate holding tanks, and brought to the experimental room in order to acclimatise. The following day fish were intraperitoneally injected with vehicle Ringer’s solution (13 females and 8 males), or the antagonist (11 females and 10 males). The Ringer’s solution recipe was retrieved from the Zebrafish Information Network (ZFIN, University of Oregon, Eugene, OR, USA).
Intraperitoneal injections were conducted using a 1 mL U-100 BD MicroFine™ Insulin Syringe (Becton Dickinson France S.A.S., France). Post injection, animals were placed into their holding tanks for one hour to recover. […] Following this, focal fish were individually placed in the middle of the test tank and left to freely move around for ten minutes (acclimation period) before visual partitions were removed, which initiated the start of the test period (15 minutes).
All data for the social preference and novel tank diving experiments in adults were extracted as processed means per minute from EthoVision. For the shoaling experiments, raw data was exported from EthoVision, and then post-processed by an in-house script written in Python 3.4, in order to compute IFD, NND, and FND as described elsewhere. For timelines, repeated measures analysis of variance (RM-ANOVA) was used. For pairwise comparisons of total means between groups, Student’s T-tests were used.

monkeys = settings: cited from earlier work
zebrafish = system: zebrafish; design: method as in 4 sources, ref 42 = [42]; PMID 21956239; doi:10.1007/s00213-011-2482-2; 42. Braida D Neurohypophyseal hormones manipulation modulate social and anxiety-related behavior in zebrafish Psychopharmacology (Berl) 2012 220 319 330 10.1007/s00213-011-2482-2 21956239 ||| ref 44 = [44]; PMID 27247142; doi:10.1016/j.bbr.2016.05.059; 44. Zimmermann FF Gaspary KV Siebel AM Bonan CD Oxytocin reversed MK-801-induced social interaction and aggression deficits in zebrafish Behav Brain Res 2016 311 368 374 10.1016/j.bbr.2016.05.059 2724 ||| ref 51 = [51]; doi:10.1163/1568539x-00003261; 51. Lindeyer CM Langen EMA Swaney WT Reader SM Nonapeptide influences on social behaviour: effects of vasotocin and isotocin on shoaling and interaction in zebrafish Behaviour 2015 152 897 915 10.1163 ||| ref 27 = [27]; PMID 26347614; doi:10.3389/fncir.2015.00039; 27. Dreosti E Lopes G Kampff AR Wilson SW Development of social behavior in young zebrafish Front Neural Circuits 2015 9 39 10.3389/fncir.2015.00039 26347614 PMC4539524; settings: cited from earlier work
Excerpt: Thus far, dopamine[56] and serotonin[57] in the mesolimbic system and excitation-inhibition balance[58] seem to play a prominent role in social investigation in rodents. Similarly, levels of dopamine and serotonin are modulated in socially interacting fish[59]–[61] and social preference behaviour decreases after treatment with a dopamine D1 receptor antagonist. […] In rodents, release of ... || (+ 1 further places)

[1] = cited from earlier work

Cc1ccccc1N1CCN(S(=O)(=O)C[C@]23CC[C@H](C[C@@H]2NC(=O)[C@@H](N)CCS(C)(=O)=O)C3(C)C)CC1 [L-368,899]
Social preference in adults, in words (adult zebrafish; 100 µg per gram fish i.p.): decreased social preference; also recorded: inhibits social preference | Social preference in adults, in words (adult zebrafish; 100 µg per gram fish i.p., listed as antagonist): did not completely abolish social preference | Time in all the other zones vs vehicle (adult zebrafish; 15 min test, 100 µg per gram fish i.p.): significantly more time | Time in Zone 1 (closest to the shoal) vs vehicle (adult zebrafish; 15 min test, 100 µg per gram fish i.p., t(39) = 3.339, p = 0.0016): significantly less time | Distance from shoal vs vehicle (adult zebrafish; 15 min test, F(1,39) = 10.79, p = 0.0022): significantly further away | Social behaviour: Distance to shoal (adult zebrafish; adult social preference, 100 µg per gram fish i.p., 1 h before test, mean ± SEM, vehicle 11.0 ± 1.8): 19.7 ± 1.9 cm | Social behaviour: Social zone duration (adult zebrafish; adult social preference, 100 µg per gram fish i.p., 1 h before test, mean ± SEM, vehicle 45.9 ± 2.3): 34.5 ± 2.4 s/min | Locomotion: Distance (adult zebrafish; adult social preference, 100 µg per gram fish i.p., 1 h before test, mean ± SEM, vehicle 528 ± 19, p = 0.25): 496 ± 20 cm/min | Activity parameters vs vehicle, social preference test (adult zebrafish; average distance p = 0.25, average velocity p = 0.32): no significant differences | Approach to shoal, acclimation vs test period (adult zebrafish; paired T-test, average distance to shoal, antagonist t(19) = 5.983, p = 9e-6): responded to the visual stimuli of a conspecific shoal | Social preference, pilot experiment, 5 μg per gram fish (adult zebrafish; pilot, 5 μg L-368,899 per gram fish): did not affect social preference | Social preference, pilot experiment, 50 μg per gram fish (adult zebrafish; pilot, 50 μg L-368,899 per gram fish): did not affect social preference | Behavioural effects one hour after treatment (monkeys): robust behavioural effects | Social preference, compound by itself (zebrafish; adult zebrafish): did not decrease social preference | Social deficits following MK-801 exposure (zebrafish; zebrafish exposed to glutamate antagonist MK-801): did not reverse those deficits | half-life [1]: about 2 hours
